Target: Lysine--tRNA ligase (Plasmodium falciparum (isolate 3D7), UniProt Q8IDJ8)
Experiment: Pf-KRS-1 (Lysyl-RNA Synthetase-1, KRS-1, cytosolic KRS) from Plasmodium falciparum. Inhibitor assay, 384 well plate, luminescence read.
Format: functional

Lysine--tRNA ligase, sequence (Q8IDJ8 whole entry): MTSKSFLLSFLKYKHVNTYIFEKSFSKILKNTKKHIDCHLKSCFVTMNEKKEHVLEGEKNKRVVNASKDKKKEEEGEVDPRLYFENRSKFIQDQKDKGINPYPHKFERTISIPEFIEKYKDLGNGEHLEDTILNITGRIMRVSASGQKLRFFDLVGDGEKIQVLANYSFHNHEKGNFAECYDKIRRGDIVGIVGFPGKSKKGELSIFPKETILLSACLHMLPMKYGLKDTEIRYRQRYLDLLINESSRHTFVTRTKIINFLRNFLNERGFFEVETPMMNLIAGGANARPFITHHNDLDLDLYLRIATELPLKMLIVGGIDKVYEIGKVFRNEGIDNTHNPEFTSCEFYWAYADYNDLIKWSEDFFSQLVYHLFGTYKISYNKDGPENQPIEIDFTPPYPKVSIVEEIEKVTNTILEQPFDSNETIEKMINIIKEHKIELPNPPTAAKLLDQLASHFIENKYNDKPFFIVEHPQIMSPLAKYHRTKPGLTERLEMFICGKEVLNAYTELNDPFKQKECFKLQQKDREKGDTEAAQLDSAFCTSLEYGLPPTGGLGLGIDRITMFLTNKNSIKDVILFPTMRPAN

Row | Compound | IC50
1 | COC(=O)c1ccc2ccn(CC3CCCCO3)c(=O)c2c1 (configuration not stated) | 38.2 µM
2 | Clc1snnc1CN1CCCCC1Cn1cncn1 (configuration not stated) | > 50.1 µM
3 | Cc1ccc(CN2CCCN(Cc3cscn3)CC2)cc1 | > 50.1 µM
4 | Cc1nn(C)c(C)c1NC(=O)CN1CCOC(Cn2cccn2)C1 (configuration not stated) | > 50.1 µM
5 | CC(=O)c1cc(CC(=O)N2CCN(S(=O)(=O)c3ccccc3)CC2)cs1 | > 50.1 µM
6 | CC(C)NC(=O)N1CCc2c(CNc3ncccn3)cncc2C1 | > 50.1 µM
7 | O=C(O)c1c(-c2ccoc2)ncc2c1CCN(C1CCOC1)C2 (configuration not stated) | > 50.1 µM
8 | COCCCN1CC2(CCCCN2C(=O)C2CCCCC2)CC1=O (configuration not stated) | > 50.1 µM
9 | Cc1ccn2ncc(C(=O)N3CCCC(n4nc(C)nc4C)C3)c2n1 (configuration not stated) | > 50.1 µM
10 | O=c1c(CN2CCCCC2)coc2ccc(Cl)cc12 | > 50.1 µM
11 | CCn1cc2c(n1)C(COCC1CC1)CN(C(=O)c1cc(C)on1)C2 (configuration not stated) | > 50.1 µM
12 | CN1[C@H](Cn2cncn2)C[C@@H]2CN(Cc3cccc(C#N)c3)CC[C@@H]21 | > 50.1 µM
13 | O=C(NCC1CCC1)c1ccnc(-n2ccnc2)c1 | > 50.1 µM
14 | COCc1cc(N(CC(F)F)C2CC2)n2ncnc2n1 | > 50.1 µM
15 | Cc1cc(C2CCC2)nc(N2CCC3(CC2)OCCCC3O)n1 (configuration not stated) | > 50.1 µM
16 | Cc1noc(C)c1CN1CCOC2(CCCN(c3nncs3)C2)C1 (configuration not stated) | > 50.1 µM
17 | Cc1ccc(-n2nnc(C(=O)NCC3CCCCC3)n2)cc1 | > 50.1 µM
18 | NC(=O)c1csc(N2CCCC(c3n[nH]c(=O)n3-c3ccccc3)C2)n1 (configuration not stated) | > 50.1 µM
19 | Cc1cc(C)c2nc(CNC3CCCNC3=O)cc(O)c2c1 (configuration not stated) | > 50.1 µM
20 | Cc1nc(C)c(C)c(N(C)CCCc2nccn2C)n1 | > 50.1 µM
21 | O=c1c(CN2CCOCC2)coc2ccc(Cl)cc12 | > 50.1 µM
22 | O=C([C@@H]1C[C@H]2[C@H](CCN2Cc2nccs2)O1)N1CCOCC1 | > 50.1 µM
23 | O=C(CCNC(=O)c1ccoc1)Nc1cc(F)ccc1F | > 50.1 µM
24 | NC(=O)c1ccc(CN2C(=O)C3(CCNCC3)Nc3ccccc32)cc1 | > 50.1 µM
25 | O=C1CC(c2ccc(O)cc2)c2c(c(C(=O)O)cn2-c2ccccc2)N1 (configuration not stated) | > 50.1 µM

Row | Compound | IC50
26 | C/C=C(\C)CN1C[C@H](NC(=O)CCOC)[C@@H](c2ccc(C)o2)C1 | > 50.1 µM
27 | Cc1nc(N(C)C)ncc1C(=O)NCCc1csc(-c2ccncc2)n1 | > 50.1 µM
28 | CCCOc1ccc(CNC(=O)N2CCC(C(N)=O)C2)cc1 (configuration not stated) | > 50.1 µM
29 | Cc1nc[nH]c1CN1CCn2nc(CN3Cc4ccccc4C3)cc2C1 | > 50.1 µM
30 | CCCc1ccc(CN2CCN(C(=O)C(C)C)[C@@H]3CS(=O)(=O)C[C@@H]32)o1 | > 50.1 µM
31 | O=C1COc2ccccc2N1CCCn1cnnn1 | > 50.1 µM
32 | COc1ccc(C2CCCN2C(=O)Nc2ccc(OC)nc2)cc1 (configuration not stated) | > 50.1 µM
33 | Cc1nc(CN2CCC3(CCCO3)CC2)c2ccccn12 | > 50.1 µM
34 | COc1ccc(NC(=O)N2CCCC2c2ccncc2)cn1 (configuration not stated) | > 50.1 µM
35 | CC(C)(C)c1cc(CN2CCOC(CCc3ccccc3)C2)n[nH]1 (configuration not stated) | > 50.1 µM
36 | CC(NC(=O)NCCOc1ccc(Cl)cc1)c1nncn1C (configuration not stated) | > 50.1 µM
37 | O=c1ccc2c(n1Cc1cccnc1)CCC(NCc1cccnc1)C2 (configuration not stated) | > 50.1 µM
38 | Cc1ccc(O)c(CNCC(C)c2nc3ccccc3o2)n1 (configuration not stated) | > 50.1 µM
39 | CCN(Cc1ccc2c(c1)OCO2)C(=O)NCc1nc(C)cs1 | > 50.1 µM
40 | CCC1CCC(CNC(=O)c2c[nH]c(=O)c(Cl)c2)CC1 (configuration not stated) | > 50.1 µM
41 | CN1C[C@@H]2CC[C@H](CC1=O)N2C(=O)c1ccc(-c2ccccc2)[nH]c1=O | > 50.1 µM
42 | O=C(C[S+]([O-])Cc1c(Cl)cccc1Cl)N1CCc2sccc2C1 (configuration not stated) | > 50.1 µM
43 | Cc1ccnc(NCCNC(=O)C2CC3(CCNCC3)CN2C)c1 (configuration not stated) | > 50.1 µM
44 | Cc1noc(C)c1CN1CC[C@H]2[C@H]1CCN2CC1CCOCC1 | > 50.1 µM
45 | FC(F)(F)COCCN1CCc2cncnc2C1 | > 50.1 µM
46 | CSCCCN1CCCC(Cn2ccnc2)C1 (configuration not stated) | > 50.1 µM
47 | CCCc1ccc(CN2CCN(c3ncccn3)[C@@H]3CS(=O)(=O)C[C@@H]32)o1 | > 50.1 µM
48 | Cc1cccc2c1CCN(c1cc(N3CCCC3CO)ncn1)C2 (configuration not stated) | > 50.1 µM
49 | Cc1cc2ccccc2n1CCC(=O)N1CCCCC1CCO (configuration not stated) | > 50.1 µM
50 | c1cnc(N2CCCC(NCc3ccc(-n4ccnc4)cc3)C2)nc1 (configuration not stated) | > 50.1 µM

Row | Compound | IC50
51 | NS(=O)(=O)c1ccc(NC(=O)CSc2ccc3c(c2)CCC3)cc1 | > 50.1 µM
52 | Cc1cc(C)c2nc(CN[C@H]3CCCNC3)cc(O)c2c1 | > 50.1 µM
53 | COCCN1CCOCC12CCN(c1ccc(C#N)cc1)CC2 | > 50.1 µM
54 | Cn1cc(C(C)(O)CNc2ccc(Cl)c(C#N)n2)cn1 (configuration not stated) | > 50.1 µM
55 | COc1ccc(/C=C/CN2C[C@H]3CC[C@@H]2CN(S(=O)(=O)N(C)C)C3)cc1 | > 50.1 µM
56 | c1csc(CN2CCCN(c3ncnc4[nH]ccc34)CC2)c1 | > 50.1 µM
57 | Cc1sc(Oc2ccccc2Cl)nc1C(=O)O | > 50.1 µM
58 | Cn1c(CN2CCCc3cc(F)cc(F)c32)cc(=O)n(C)c1=O | > 50.1 µM
59 | CN1C(=O)CC2(CCN(S(=O)(=O)c3cccs3)CC2)c2ccccc21 | > 50.1 µM
60 | C=C(C)Cn1ccc2cc(OC)c(F)cc2c1=O | > 50.1 µM
61 | O=C(Cc1ccsc1)N1CCCC(c2n[nH]c3ncccc23)C1 (configuration not stated) | > 50.1 µM
62 | CCn1ncc2c1CCCC2NCc1ccc(OC)c(C)c1 (configuration not stated) | > 50.1 µM
63 | Cc1cc(C(N)=O)ccc1NC(=O)c1nc(N2CCCC2)ncc1Cl | > 50.1 µM
64 | c1cnnc(N2CCCC(NCc3ccncc3)C2)c1 (configuration not stated) | > 50.1 µM
65 | CSc1cc2c(cc1NC(=O)NCC(C)(C)C(N)=O)OCCO2 | > 50.1 µM
66 | O=C(CC1CCCC1)N1CC[C@H]2[C@H]1CCN2c1nncs1 | > 50.1 µM
67 | O=C1CC(c2ccc(C(=O)O)cc2)c2ncn(-c3cccc(F)c3)c2N1 (configuration not stated) | > 50.1 µM
68 | CCC[C@@H]1CN(Cc2nnc(-c3cccc(F)c3)o2)C[C@H]1NC(C)=O | > 50.1 µM
69 | CCc1cc2cc(OC)c(OC)cc2nc1SCCN1CCCCC1 | > 50.1 µM
70 | Cc1cnn(CCNCC(O)COc2ccc(Cl)cc2)c1 (configuration not stated) | > 50.1 µM
71 | Cc1nnc(CN2CCCC(CCc3ccccc3C(F)(F)F)C2)o1 (configuration not stated) | > 50.1 µM
72 | O=C(O)c1cc(-c2ccncc2F)cc(S(=O)(=O)N2CCCCCC2)c1 | > 50.1 µM
73 | Cc1cccc(OCCCNC(=O)NC(C)c2nncn2C)c1 (configuration not stated) | > 50.1 µM
74 | Cc1nc(N(C)CCCc2nccn2C)c2nc(C)oc2n1 | > 50.1 µM
75 | CCOc1cccc2c1OCC(C(=O)NS(=O)(=O)Cc1ccccc1)=C2 | > 50.1 µM

Row | Compound | IC50
76 | Cc1nc(CCC(=O)N2Cc3cnc(-c4ccccc4)nc3C2)n[nH]1 | > 50.1 µM
77 | c1cnn(C2CN(c3ncnc4[nH]ccc34)C2)c1 | > 50.1 µM
78 | Cc1cc(C)c2nc(CNC3CCNC3=O)cc(O)c2c1 (configuration not stated) | > 50.1 µM
79 | COc1cccc(-n2c(C)cc(C(=O)NS(C)(=O)=O)c2C)c1 | > 50.1 µM
80 | COc1cc(NC(=O)N(C)Cc2ccc(Br)o2)ncn1 | > 50.1 µM
81 | COc1ccccc1N1CCC(N2CCOCC(CO)C2)CC1 (configuration not stated) | > 50.1 µM
82 | O=C1COc2cc(C(=O)NCc3ccc(Cl)s3)ccc2N1 | 17.5 µM
83 | CCN1CC(C(=O)N2CCN(CCn3cccc3)CC2)CC1=O (configuration not stated) | > 50.1 µM
84 | Cc1nnc(NCCn2nc(C)c(Cl)c2C)o1 | > 50.1 µM
85 | CCc1ccc(CN2CCN(C(=O)C(C)C)[C@@H]3CS(=O)(=O)C[C@@H]32)cc1 | > 50.1 µM
86 | CC(NC(=O)NCCCOc1ccccc1F)c1nncn1C (configuration not stated) | > 50.1 µM
87 | O=c1[nH]c2c(c(=O)n1C1CCCCC1)CCC2Nc1ccccn1 (configuration not stated) | > 50.1 µM
88 | CS(=O)(=O)N1C[C@H](C(=O)Nc2cnccn2)C[C@H]2OCC[C@H]21 | > 50.1 µM
89 | CNc1ncc2c(n1)CN(C1CCCC1)C2=O | > 50.1 µM
90 | O=C(CC1COCCN1)N1CCC(N2CCc3ccccc3C2)CC1 (configuration not stated) | > 50.1 µM
91 | Cc1nc(CN(C)C2CCN(Cc3c(C)noc3C)C2)no1 (configuration not stated) | > 50.1 µM
92 | Fc1cccc(CN2CCN(Cc3cscn3)CC2)c1 | > 50.1 µM
93 | COCCOc1ccc(NC(=O)N2CCCC2c2ccsc2)cn1 (configuration not stated) | > 50.1 µM
94 | CC1(C)CCN1C(=O)c1cc(F)cc2[nH]cnc12 | > 50.1 µM
95 | Cc1csc(CNC(=O)NCc2ccc3c(c2)OCCO3)n1 | > 50.1 µM
96 | CO[C@H]1CC[C@H]2[C@H]1OCCN2C(=O)CC1=CCCCC1 | > 50.1 µM
97 | COc1c(C)cnc(CN(C)C(=O)c2ccccc2O)c1C | > 50.1 µM
98 | Cc1cnn(CC2CCCN2C(=O)c2cccc3c2OCO3)c1 (configuration not stated) | > 50.1 µM
99 | CC(C)c1nccn1C1CCCN(C(=O)c2ccc3c(c2)COC3)C1 (configuration not stated) | > 50.1 µM
100 | O=C(c1cnccn1)N1C[C@@H](c2ccccc2)[C@@]2(CCNC2=O)C1 | > 50.1 µM

Row | Compound | IC50
101 | N#CCc1ccc(OCC(=O)N2CCCC(n3cccn3)C2)cc1 (configuration not stated) | > 50.1 µM
102 | CCc1c(C)[nH]c(C(C)(N)CC)nc1=O (configuration not stated) | > 50.1 µM
103 | CSCCC(O)C(=O)N1CCCN(Cc2cccnc2)CC1 (configuration not stated) | > 50.1 µM
104 | O=C(NCCc1ccco1)Nc1cc(C(F)(F)F)c[nH]c1=O | > 50.1 µM
105 | CNC(=O)c1ccc2c(c1)C1(CCN(CC(C)C)CC1)C(=O)N2 | > 50.1 µM
106 | O=C(NCc1ccc(Cl)s1)c1ccc(N2CCOC2=O)cc1 | > 50.1 µM
107 | CCc1nc(C2CCCN2Cc2noc(Cc3ccccc3)n2)no1 (configuration not stated) | > 50.1 µM
108 | CN(C)CCO[C@H]1C[C@@H](O)C12CCN(c1nccc3ccccc13)CC2 | > 50.1 µM
109 | O=C(CCNC(=O)c1ccoc1)Nc1cccc(F)c1 | > 50.1 µM
110 | CCOC(=O)C1CCCN(Cc2cc(C#N)n(C)c2C)C1 (configuration not stated) | > 50.1 µM
111 | N#Cc1cccc(CN2CCN(Cc3cscn3)CC2)c1 | > 50.1 µM
112 | COc1c(F)ccc(C(=O)N2CC[C@H](CO)[C@@H](O)C2)c1F | > 50.1 µM
113 | CCN(C)C(=O)c1cc(-c2ccn(C(C)C)n2)n2ccccc12 | > 50.1 µM
114 | COc1cc(C2CC(=O)Nc3c2nc2n3CCCC2)cc(OC)c1O (configuration not stated) | > 50.1 µM
115 | O=C(COCc1ccccc1Cl)N1CCN(c2cnccn2)CC1 | > 50.1 µM
116 | CC(=O)N1CC(=O)N(c2ccsc2)CC12CCN(Cc1ccccn1)C2 (configuration not stated) | > 50.1 µM
117 | Cc1ccc(C2CCCN2Cc2nc3c(cnn3C)c(=O)[nH]2)cc1C (configuration not stated) | > 50.1 µM
118 | Cc1ccc(N2CC[C@H](OCC3CC3)[C@@H]2Cc2cnn(C)c2)nn1 | > 50.1 µM
119 | CC(=O)c1cnc(N(C)Cc2cc(C)cc(C)n2)nc1C | > 50.1 µM
120 | Cc1nc(N(C)C)ncc1C(=O)NCCc1csc(-c2cnccn2)n1 | > 50.1 µM
121 | CNS(=O)(=O)c1ccc(CNC(=O)NCC2CCC2)cc1 | > 50.1 µM
122 | COc1cc(CNC(C)Cn2ccnc2)cc2c1OCO2 (configuration not stated) | > 50.1 µM

— ChEMBL document CHEMBL3988442, “University of Dundee, Small-Polar-MMV Screening Library” (2021)
